Active and inactive are the calls of the source.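 Rule for the calls: active = AC50, the dose giving half-maximal effect, exceeds a fixed cutoff for a compound that rescues yeast growth under heat; inactive = the rest, inconclusive results apart.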
Test system: S. cerevisiae Burl-1 ts mutant growth, BacTiter-Glo, 38.5C 24 h
Test: restored growth of temperature-sensitive Burl-1 yeast – whole organism, S. cerevisiae, Burl-1 ts mutant, luminescence, counter-screen for SUMOylation pathway inhibitor project, dose response (AID 463199)

Cc1cc(C)n(-c2ccc(C(=O)C(C#N)c3nc4ccccc4n3C)cc2)n1 (centres undefined)
AC50: > 42 µM (inactive)

O=C(CC1(CC2=NS(=O)(=O)c3ccccc3N2)CCCC1)NCCc1ccccc1
AC50: > 42 µM (inactive)

Cc1ccc(CC2CC(=O)N(c3ccc4c(c3)OCCO4)C2=O)cc1 (centres undefined)
AC50: > 42 µM (inactive)

COc1cccc(CNC(=O)CCCn2nc(C)c3c(C)n(-c4ccccc4)nc3c2=O)c1
AC50: > 42 µM (inactive)

CCS(=O)(=O)N1CCC(C(=O)NCCCN2CCN(c3ccccc3F)CC2)CC1
AC50: > 42 µM (inactive)

COc1ccc(/C=C/C(=O)NC(=S)Nc2ccccn2)cc1
AC50: > 42 µM (inactive)

CCOC(=O)C1(Cc2cccc(Cl)c2)CCCN(C(=O)CCOC)C1 (centres undefined)
AC50: > 42 µM (inactive)

Cc1sc2ncnc(Nc3ccccc3)c2c1C
AC50: > 42 µM (inactive)

COc1ccc(S(=O)(=O)NC(C)C(=O)NCc2ccccn2)cc1Cl (centres undefined)
AC50: > 42 µM (inactive)

CCCCc1nnc(NC(=O)CSc2nc(O)c(-c3ccccc3)c(=O)[nH]2)s1
AC50: > 42 µM (inactive)

O=C(N=C1SC2CS(=O)(=O)CC2N1c1ccc(F)c(Cl)c1)C1CC1 (centres undefined)
AC50: > 42 µM (inactive)

Cc1cccc(NS(=O)(=O)c2ccc3[nH]c(=O)cc(C(=O)O)c3c2)c1
AC50: > 21 µM (inactive)

O=C(COc1ncnc2ccccc12)Nc1ccc(Cl)c(S(=O)(=O)N2CCOCC2)c1
AC50: > 42 µM (inactive)

O=C1c2ccccc2C(=O)N1CCSc1ccccc1
AC50: > 42 µM (inactive)

COc1ccccc1N1CCN(C(=O)C(=O)N/N=C/c2ccccc2F)CC1
AC50: > 42 µM (inactive)

O=C1CCC(/C=C/c2ccccc2)=NN1Cc1ccc(Cl)c(Cl)c1
AC50: > 42 µM (inactive)

CCOC(=O)C1(c2ccccc2)CCN(CCC(=O)Nc2ccccc2OC)CC1
AC50: > 42 µM (inactive)

Cc1ccc(-c2nn(-c3ccccc3)cc2C(=O)N2CCN(c3ccccn3)CC2)cc1
AC50: > 42 µM (inactive)

COC(=O)CCC(=O)OC1(C)C(=O)C2=CN(CCc3c[nH]c4ccccc34)C(c3ccc(OC)cc3)=CC2=C(Br)C1=O (centres undefined)
AC50: > 42 µM (inactive)

O=S(=O)(c1ccc(S(=O)(=O)N2CCCC2)cc1)N1CCCCC1
AC50: > 42 µM (inactive)

CC(=O)N1CCC2(CC1)CC(=O)c1cc(OCC(=O)N3CCCC3)ccc1O2
AC50: > 42 µM (inactive)

CCOc1ccc(Cl)cc1CNc1nnnn1CC
AC50: > 42 µM (inactive)

N#Cc1cc([N+](=O)[O-])cnc1NCC(O)CO (centres undefined)
AC50: > 42 µM (inactive)

Cc1nnc(SCC(=O)NCc2ccccc2Cl)[nH]c1=O
AC50: > 42 µM (inactive)

COc1ccc2cc(C(=O)Nc3ccc(Cl)cc3)sc(=O)c2c1OC
AC50: > 42 µM (inactive)

CN1C(=O)/C(=C/c2ccc(OCc3ccccc3F)cc2)NC1=S
AC50: > 42 µM (inactive)

O=C(CCCNC(=O)/C(=C/c1ccccc1F)NC(=O)c1ccccc1)OCc1ccccc1
AC50: > 42 µM (inactive)

COc1cccc(C2CC(c3cccc(NS(C)(=O)=O)c3)=NN2C(=O)c2ccccc2)c1OC (centres undefined)
AC50: > 42 µM (inactive)

O=S(=O)(c1ccccc1)N1CCN(c2nc3ccccc3s2)CC1
AC50: > 42 µM (inactive)

N/C(Cn1cncn1)=N\NC(=O)c1ccc(Cl)cc1Cl
AC50: > 42 µM (inactive)

O=C(Nc1nc(-c2ccccn2)cs1)c1ccc2c(c1)OCCO2
AC50: > 42 µM (inactive)

N=c1c2c(n(Cc3ccc(Cl)c(Cl)c3)c3c1CCC3)CCCC2
AC50: > 42 µM (inactive)

O=C(O)c1ccc(N=C2NC(=O)C(CO)(CO)S2)cc1
AC50: > 42 µM (inactive)

Cc1ccc(NC(=O)C(=O)NCC2CCCN2S(=O)(=O)c2cccs2)cc1 (centres undefined)
AC50: > 42 µM (inactive)

CCn1c(SCC(=O)Nc2ccc(OCc3ccccc3)cc2)nnc1-c1ccco1
AC50: > 42 µM (inactive)

CCn1cnc2sc(-c3ccccc3)cc2c1=O
AC50: > 42 µM (inactive)

COc1ccc(Nc2cc(NCCCO)c([N+](=O)[O-])c3nonc23)cc1
AC50: > 42 µM (inactive)

CC(=O)Nc1ccc(S(=O)(=O)Nc2ccc3c(c2)C(=O)OC3)cc1
AC50: > 42 µM (inactive)

COc1ccc(CN2CCCCCC2)cc1
AC50: > 42 µM (inactive)

CC(=O)c1cccc(NC(=O)CNC(=O)c2sc3ccccc3c2Cl)c1
AC50: > 42 µM (inactive)

COc1cc2c(cc1OC)C(c1ccccc1[N+](=O)[O-])N(C(C)=O)CC2 (centres undefined)
AC50: > 42 µM (inactive)

COc1ccc(-c2nc3c(c(SCC(=O)N4CCOCC4)n2)Cc2c(CO)cnc(C)c2O3)cc1
AC50: > 42 µM (inactive)

CCOc1ccc(NC(=O)CC2C(=O)N(c3ccccc3)C(=S)N2Cc2ccccn2)cc1 (centres undefined)
AC50: > 42 µM (inactive)

CCOC(=O)N1CCN(C(=O)c2ccccc2-c2ccccc2)CC1
AC50: > 42 µM (inactive)

CCCc1nc2c(nnn2Cc2ccccc2F)c(=O)[nH]1
AC50: > 42 µM (inactive)

O=C1N=C(N2CCN(c3ccccc3)CC2)SC1Cc1ccccc1 (centres undefined)
AC50: > 42 µM (inactive)

O=S(=O)(Cc1ccccc1)N1CCN(c2ccccc2)CC1
AC50: > 42 µM (inactive)

CCOc1ncccc1-c1nc(-c2cccs2)no1
AC50: > 42 µM (inactive)

O=C(CCSc1ccccc1)NNC(=O)c1ccccc1F
AC50: > 42 µM (inactive)

COc1cc(C(=O)NCCC2=CCCCC2)cc(OC)c1OC
AC50: > 42 µM (inactive)

Cc1occc1-c1nnc(SCC(=O)N2CCN(c3ccccc3)CC2)n1C
AC50: > 42 µM (inactive)

CC1CCN(Cc2nc3c(c(=O)n(C)c(=O)n3C)n2CCc2ccccc2)CC1
AC50: > 42 µM (inactive)

O=C1C2CCCCN2C(=O)N1CCCCN1CCN(c2ccccc2Oc2ccccc2)CC1 (centres undefined)
AC50: > 42 µM (inactive)

Cc1nn(CC(=O)Nc2ccccn2)c(C)c1[N+](=O)[O-]
AC50: > 42 µM (inactive)

O=C1NC2(CCCCO2)CO1 (centres undefined)
AC50: > 42 µM (inactive)

COc1ccc(/C=C2\SC(=S)N(CCCC(=O)Nc3cc(C)on3)C2=O)cc1OC
AC50: > 42 µM (inactive)

Cn1c(Cn2nnc3ccccc32)nnc1SCC(=O)c1ccc(F)cc1
AC50: > 42 µM (inactive)

CC(C)N(C(=S)Nc1cccc(S(=O)(=O)N(C)C)c1)c1ccccc1
AC50: > 42 µM (inactive)

COc1ccc(Oc2c(C)oc3cc(OC(=O)N(C)C)ccc3c2=O)cc1
AC50: > 42 µM (inactive)

CN(C)C(=O)c1c2c(nc3ccccc13)CCCC2
AC50: > 42 µM (inactive)

COc1ccc(CNS(=O)(=O)c2ccc3c(c2)CCN3C(=O)C2CCC2)cc1
AC50: > 42 µM (inactive)

CC1(C)CCC(=O)N2CC[C@H]3C[C@H](OC(=O)Nc4ccc(Br)cc4)C[C@@H]1[C@H]32
AC50: > 42 µM (inactive)

CCc1noc(C)c1C(=O)Nc1nc(-c2ccc(F)cc2)c(C)s1
AC50: > 42 µM (inactive)

C(=N\Nc1ccc2nncn2n1)/c1ccccn1
AC50: > 42 µM (inactive)

CN(C)/C(CN1CCCCC1)=C1\N=C(c2ccccc2)OC1=O
AC50: > 42 µM (inactive)

CCOC(=O)c1cc2sc(C)cc2n1CC(=O)Nc1ccc2c(c1)OCCO2
AC50: > 42 µM (inactive)

O=C(Nc1nnc(-c2ccco2)o1)c1ccc(S(=O)(=O)N2CCCC2)cc1
AC50: > 42 µM (inactive)

NNC(=O)c1oc2nc(-c3ccccc3)cc(-c3ccccc3)c2c1N
AC50: > 42 µM (inactive)

COc1ccc([N+](=O)[O-])c2c(=O)ccoc12
AC50: > 42 µM (inactive)

CCCCC(=O)Nc1nnc(/C=C/c2ccc(OC)cc2)s1
AC50: > 42 µM (inactive)

COC(=O)c1[nH]c2cc(C)ccc2c1NC(=O)CN1CCN(c2ccccc2OC)CC1
AC50: > 21 µM (inactive)

Cc1c(NC(=O)CN2C(=O)NC(C)(c3ccc(OC(F)F)cc3)C2=O)c(=O)n(-c2ccccc2)n1C (centres undefined)
AC50: > 42 µM (inactive)

CN(C)S(=O)(=O)N1CCc2ccccc2C1
AC50: > 42 µM (inactive)

CC1CN=C(NCc2ccccc2)S1 (centres undefined)
AC50: > 42 µM (inactive)

N#Cc1c(Cn2cncn2)nc(=O)n(-c2ccc(Cl)cc2)c1N
AC50: > 42 µM (inactive)

C[C@H]1O[C@H]1P(=O)(O)O
AC50: > 42 µM (inactive)

N#Cc1ccc(Oc2ccc(S(=O)(=O)N3CCCCC3)cn2)cc1
AC50: > 42 µM (inactive)

C=C(Cl)COC(=O)C1C2C=CC(C2)C1C(=O)O (centres undefined)
AC50: > 42 µM (inactive)

Nc1nnnn1CC(=O)N/N=C/c1cccs1
AC50: > 42 µM (inactive)

COc1ccc(-c2cc(CC3(C(=O)O)CCN(C(=O)OC(C)(C)C)CC3)on2)c(OC)c1
AC50: > 42 µM (inactive)

COc1cc(/C=N/n2cnnc2)ccc1OCc1ccccc1
AC50: > 42 µM (inactive)

COc1ccc(OC)c(NC(=O)CN(C)S(=O)(=O)c2ccc(Cl)cc2)c1
AC50: > 42 µM (inactive)

CC(NC(=O)C1CCCN(S(=O)(=O)N2CCOCC2)C1)c1ccccc1 (centres undefined)
AC50: > 42 µM (inactive)

COc1ccc(C(=O)c2c(C)c3cc(C)ccc3n2CC(O)CN2CCOCC2)cc1 (centres undefined)
AC50: > 110 µM (inactive)

COc1ccc(/C=N/NC(=O)c2nnn(-c3nonc3N)c2-c2cccs2)cc1OC
AC50: > 42 µM (inactive)

N#CC1=C(SCC(N)=O)NC(=O)CC1c1ccccc1Cl (centres undefined)
AC50: > 42 µM (inactive)

OCC1(Cc2cccc(Cl)c2)CCCN(Cc2ccc(F)c(F)c2)C1 (centres undefined)
AC50: > 42 µM (inactive)

O=C1CN(C(=O)c2ccccc2F)C(c2ccccc2)c2cc(Cl)ccc2N1 (centres undefined)
AC50: > 42 µM (inactive)

COc1ccc(C(=O)Nc2ccccc2C(=O)NCCN2CCOCC2)cc1OC
AC50: > 42 µM (inactive)

COCCn1c(C)cc(C(=O)CN2C(=O)NC3(CCCCCCC3)C2=O)c1C
AC50: > 42 µM (inactive)

CCc1cc2c(=O)c(-c3nc4ccccc4n3C)c(C)oc2c(CN2CCOCC2)c1O
AC50: 22.7 µM

COc1ccc(C2=C(N)c3ccccc3C2=O)cc1
AC50: > 42 µM (inactive)

O=C(CSc1nnnn1C1CC2CCC1C2)Nc1ccnc2ccccc12 (centres undefined)
AC50: > 42 µM (inactive)

O=C(Oc1ccc2c(c1)OCO2)c1cccs1
AC50: > 42 µM (inactive)

Cc1cc([N+](=O)[O-])nn1CC(=O)NNC(=S)Nc1ccc([N+](=O)[O-])cc1
AC50: > 21 µM (inactive)

C=CCNC(=O)c1cc(-c2cccnc2)nc2ccccc12
AC50: > 42 µM (inactive)

O=C(CN1CCN(Cc2ccc(Cl)cc2)CC1)N/N=C/c1ccncc1
AC50: > 42 µM (inactive)

O=C(c1cc2ccccc2o1)N1CCCC1
AC50: > 42 µM (inactive)

Cc1cc(C)cc(N(CC(=O)Nc2cccc(C)n2)S(=O)(=O)c2c(C)noc2C)c1
AC50: > 42 µM (inactive)
